The values below come from patent US9303045B2, “5-HT3 receptor antagonists” (Takeda Pharmaceutical Company Limited, priority 2013, dated 2016).

In the assay the target is 5HT3a receptor expressed in HEK-293T cells (Homo sapiens (Human), UniProt P46098). The assay can be described thus: Inhibition of Ca flux activity of 5HT3 in vitro assay. Format: cell-based. The following applies: calcium flux, 5HT 216 nM, approximate values. The protocol:
Inhibition of Ca Flux Activity of 5HT3 In Vitro Assay
The 5HT3 antagonist activity of the compounds of the invention was determined by measuring the ability of the compounds to inhibit the calcium flux activity of […] receptor expressed in HEK-293T cells. HEK-293T cells were transfected with the 5HT3a expression construct using Xtreme Gene 9 (Roche) in 150 mm tissue culture treated plates and incubated for 24 hours at 37° C. Cells were then split and plated at a density of 60K cells/well in poly-lysine coated, black 96-well plates with clear bottoms (BD BioSciences) and incubated overnight at 37° C. Growth media was removed and cells loaded with 200 uL calcium indicator dye in HBSS containing 20 mM HEPES (Calcium 5 Assay kit, Molecular Devices) and incubated at 37° C. for 1 hour. While cells were incubating, the 10× antagonist and agonist/antagonist addition plates were made. For 10× antagonist plate: half log serial dilutions (final concentrations range from 10^−7 through 10^−10 with the bottom well a negative, no ligand control) were made from test compounds in DMSO at a 1000× concentration and then diluted to 10× in HBSS/20 mM HEPES. For addition plate: 5HT was diluted to 100× in HBSS/20 mM HEPES (final concentration in the assay—216 nM) and 15 uL was added to each well of the addition plate, 15 uL of 10× compound was also added to the addition plate, and finally 120 uL of HBSS/20 mM HEPES (for a total of 150 uL). Cells were then removed from the incubator and equilibrated to room temperature for 10 minutes, then 22.5 uL of 10× test compounds were added in triplicate to the plates and incubated at room temperature for 10 minutes (Tropisetron was used as a positive control in every assay). Test plate and addition plate were loaded into the FlexStation III (Molecular Devices), and using the fluidics, 22.5 uL compound additions were made (at t=˜17 seconds), and fluorescence was measured for 90 seconds, reading every 2.2 seconds. Data sets were analyzed as max minus min using Software Max Pro (Molecular Devices). IC50 curves were generated using non-linear regression in GraphPad Prism.

Chain of 5HT3a receptor expressed in HEK-293T cells (P46098 24-478): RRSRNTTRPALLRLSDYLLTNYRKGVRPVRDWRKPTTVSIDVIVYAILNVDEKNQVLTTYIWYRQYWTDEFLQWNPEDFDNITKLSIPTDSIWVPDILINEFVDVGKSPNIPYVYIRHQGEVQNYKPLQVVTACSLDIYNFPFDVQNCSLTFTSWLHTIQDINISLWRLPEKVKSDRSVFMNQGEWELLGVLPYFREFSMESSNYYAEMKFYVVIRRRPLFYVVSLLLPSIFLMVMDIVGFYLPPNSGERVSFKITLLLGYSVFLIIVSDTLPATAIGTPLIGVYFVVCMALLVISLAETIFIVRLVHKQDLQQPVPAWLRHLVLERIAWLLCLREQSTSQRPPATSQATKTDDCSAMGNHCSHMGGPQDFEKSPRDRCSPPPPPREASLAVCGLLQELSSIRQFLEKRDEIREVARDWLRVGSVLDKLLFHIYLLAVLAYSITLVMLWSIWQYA

One may read the IC50 as the concentration needed to halve the response being measured. Regarding `CN1C2CCCC1CC(OC(=O)c1cn(CC(F)F)c3ncccc13)C2` [Example 61, (1R,3R,5S)-9-methyl-9-azabicyclo[3.3.1]nonan-3-yl 1-(2,2-difluoroethyl)-1H-pyrrolo[2,3-b]pyridine-3-carboxylate, 2,2,2-trifluoroacetate], the IC50 came to 1 nM.
With `CN1C2CCC1CC(NC(=O)c1nn(S(C)(=O)=O)c3ccccc13)C2` [Example 62, N-((1R,3R,5S)-8-methyl-8-azabicyclo[3.2.1]octan-3-yl)-1-(methylsulfonyl)-1H-indazole-3-carboxamide, 2,2,2-trifluoroacetate] the figure was 0.75 nM; with `CN1[C@@H]2COC[C@H]1CC(NC(=O)c1cn(CC(F)F)c3ccc(F)cc13)C2` (stereo partly drawn) [Example 63, 1-(2,2-difluoroethyl)-5-fluoro-N-((1R,5S,7S)-9-methyl-3-oxa-9-azabicyclo[3.3.1]nonan-7-yl)-1H-indole-3-carboxamide, 2,2,2-trifluoroacetate], 0.49 nM; with `CN1C2COCC1CC(NC(=O)c1cn(CC(F)F)c3ncccc13)C2` [Example 64, 1-(2,2-difluoroethyl)-N-((1R,5S,7S)-9-methyl-3-oxa-9-azabicyclo[3.3.1]nonan-7-yl)-1H-pyrrolo[2,3-b]pyridine-3-carboxamide, 2,2,2-trifluoroacetate], 1.43 nM.
With `O=C(NC1C[C@H]2COC[C@@H](C1)N2)c1nn(CC(F)F)c2ccccc12` (stereo partly drawn) [Example 65, N-((1R,5S,7S)-3-oxa-9-azabicyclo[3.3.1]nonan-7-yl)-1-(2,2-difluoroethyl)-1H-indazole-3-carboxamide, 2,2,2-trifluoroacetate] the figure was 4.09 nM; with `CN1[C@@H]2COC[C@H]1CC(NC(=O)c1nn(CC(F)F)c3ncccc13)C2` (stereo partly drawn) [Example 66, 1-(2,2-difluoroethyl)-N-((1R,5S,7S)-9-methyl-3-oxa-9-azabicyclo[3.3.1]nonan-7-yl)-1H-pyrazolo[3,4-b]pyridine-3-carboxamide, 2,2,2-trifluoroacetate], 1.07 nM; with `O=C(N[C@H]1CN2CCC1CC2)c1cn(CC(F)F)c2ncccc12` [Example 67, (R)-1-(2,2-difluoroethyl)-N-(quinuclidin-3-yl)-1H-pyrrolo[2,3-b]pyridine-3-carboxamide, 2,2,2-trifluoroacetate], over 1000 nM.
With `CN1C2COCC1CC(NC(=O)c1cn(C(C)(C)C(F)(F)F)c3ncccc13)C2` [Example 69, N-((1R,5S,7S)-9-methyl-3-oxa-9-azabicyclo[3.3.1]nonan-7-yl)-1-(1,1,1-trifluoro-2-methylpropan-2-yl)-1H-pyrrolo[2,3-b]pyridine-3-carboxamide, 2,2,2-trifluoroacetate] the figure was 1.06 nM; with `CN1[C@@H]2CC[C@H]1CC(OC(=O)c1cn(CC(F)F)c3ncccc13)C2` (stereo partly drawn) [Example 72, (1R,3R,5S)-8-methyl-8-azabicyclo[3.2.1]octan-3-yl 1-(2,2-difluoroethyl)-1H-pyrrolo[2,3-b]pyridine-3-carboxylate, 2,2,2-trifluoroacetate], 3.59 nM; with `Cc1c(C(=O)OC2C[C@H]3CC[C@@H](C2)N3C)c2ccccc2n1CC(F)F` (stereo partly drawn) [Example 73, (1R,3R,5S)-8-methyl-8-azabicyclo[3.2.1]octan-3-yl 1-(2,2-difluoroethyl)-2-methyl-1H-indole-3-carboxylate, 2,2,2-trifluoroacetate], 3.15 nM.
As to `CN1[C@@H]2CC[C@H]1CC(NC(=O)c1cn(S(C)(=O)=O)c3ccccc13)C2` (stereo partly drawn) [Example 74, N-((1R,3R,5S)-8-methyl-8-azabicyclo[3.2.1]octan-3-yl)-1-(methylsulfonyl)-1H-indole-3-carboxamide, 2,2,2-trifluoroacetate], the IC50 was 0.42 nM.
Next, `CN1[C@@H]2CC[C@H]1CC(NC(=O)c1cn(CC(F)F)c3ccc(F)cc13)C2` (stereo partly drawn) [Example 75, 1-(2,2-difluoroethyl)-5-fluoro-N-((1R,3R,5S)-8-methyl-8-azabicyclo[3.2.1]octan-3-yl)-1H-indole-3-carboxamide, 2,2,2-trifluoroacetate]: 3.15 nM; `CN1[C@@H]2CC[C@H]1CC(NC(=O)c1cn(CC(F)F)c3ncccc13)C2` (stereo partly drawn) [Example 76, 1-(2,2-difluoroethyl)-N-((1R,3R,5S)-8-methyl-8-azabicyclo[3.2.1]octan-3-yl)-1H-pyrrolo[2,3-b]pyridine-3-carboxamide, 2,2,2-trifluoroacetate]: 1.22 nM.
With `CN1[C@@H]2CCC[C@H]1CC(NC(=O)c1cn(CC(F)F)c3ncccc13)C2` (stereo partly drawn) [Example 77, 1-(2,2-difluoroethyl)-N-((1R,3R,5S)-9-methyl-9-azabicyclo[3.3.1]nonan-3-yl)-1H-pyrrolo[2,3-b]pyridine-3-carboxamide, 2,2,2-trifluoroacetate] the figure was 10.5 nM; with `CS(=O)(=O)n1cc(C(=O)NC2C[C@H]3COC[C@@H](C2)N3)c2cc(F)ccc21` (stereo partly drawn) [Example 78, N-((1R,5S,7S)-3-oxa-9-azabicyclo[3.3.1]nonan-7-yl)-5-fluoro-1-(methylsulfonyl)-1H-indole-3-carboxamide, 2,2,2-trifluoroacetate], 4.81 nM.
Next, `CN1C2COCC1CC(NC(=O)c1cn(CCF)c3ccccc13)C2` [Example 79, 1-(2-fluoroethyl)-N-((1R,5S,7S)-9-methyl-3-oxa-9-azabicyclo-[3.3.1]nonan-7-yl)-1H-indole-3-carboxamide, 2,2,2-trifluoroacetate]: 0.41 nM; `CN1[C@@H]2COC[C@H]1CC(NC(=O)c1cn(C(F)C(F)(F)F)c3ncccc13)C2` (stereo partly drawn) [Example 81, N-((1R,5S,7S)-9-methyl-3-oxa-9-azabicyclo[3.3.1]nonan-7-yl)-1-(1,2,2,2-tetrafluoroethyl)-1H-pyrrolo[2,3-b]pyridine-3-carboxamide, 2,2,2-trifluoroacetate]: 1.44 nM; `O=C(NC1C[C@H]2COC[C@@H](C1)N2)c1cn(CC(F)F)c2ncccc12` (stereo partly drawn) [Example 82, N-((1R,5S,7S)-3-oxa-9-azabicyclo[3.3.1]nonan-7-yl)-1-(2,2-difluoroethyl)-1H-pyrrolo[2,3-b]pyridine-3-carboxamide, 2,2,2-trifluoroacetate]: over 1000 nM.
In the case of `CN1[C@@H]2CC[C@H]1CC(OC(=O)c1cn([C@@H]3CCOC3)c3ccccc13)C2` (stereo partly drawn) [Example 83, (1R,3R,5S)-8-methyl-8-azabicyclo[3.2.1]octan-3-yl 1-((R)-tetrahydrofuran-3-yl)-1H-indole-3-carboxylate, 2,2,2-trifluoroacetate], the 50% inhibitory concentration (IC50) was determined as 1.04 nM.
`CN1[C@@H]2CC[C@H]1CC(OC(=O)c1c3n(c4ccccc14)CCCCO3)C2` (stereo partly drawn) [Example 84, (1R,3R,5S)-8-methyl-8-azabicyclo[3.2.1]octan-3-yl 2,3,4,5-tetrahydro-[1,3]oxazepino[3,2-a]indole-11-carboxylate, 2,2,2-trifluoroacetate]: the concentration for half-maximal inhibition (IC50) was determined as 1.64 nM.
Next, `CN1[C@@H]2CC[C@H]1CC(OC(=O)c1c3n(c4ccccc14)CCCO3)C2` (stereo partly drawn) [Example 85, (1R,3R,5S)-8-methyl-8-azabicyclo[3.2.1]octan-3-yl 3,4-dihydro-2H-[1,3]oxazino[3,2-a]indole-10-carboxylate, 2,2,2-trifluoroacetate]: 1.04 nM; `CN1[C@@H]2CC[C@H]1CC(OC(=O)c1cn(S(C)(=O)=O)c3ccc(F)cc13)C2` (stereo partly drawn) [Example 86, (1R,3R,5S)-8-methyl-8-azabicyclo[3.2.1]octan-3-yl 5-fluoro-1-(methylsulfonyl)-1H-indole-3-carboxylate, 2,2,2-trifluoroacetate]: 2.48 nM; `CN1[C@@H]2CCC[C@H]1CC(OC(=O)c1cn(CCF)c3ccccc13)C2` (stereo partly drawn) [Example 87, (1R,3R,5S)-9-methyl-9-azabicyclo[3.3.1]nonan-3-yl 1-(2-fluoroethyl)-1H-indole-3-carboxylate, 2,2,2-trifluoroacetate]: 0.18 nM.
In the case of `Cc1c(C(=O)OC2C[C@H]3CCC[C@@H](C2)N3C)c2ccccc2n1CCF` (stereo partly drawn) [Example 88, (1R,3R,5S)-9-methyl-9-azabicyclo[3.3.1]nonan-3-yl 1-(2-fluoroethyl)-2-methyl-1H-indole-3-carboxylate, 2,2,2-trifluoroacetate], the 50% inhibitory concentration (IC50) was found to be 0.22 nM.
With `CN1[C@@H]2CCC[C@H]1CC(OC(=O)c1cn(CC(F)(F)F)c3ccc(F)cc13)C2` (stereo partly drawn) [Example 89, (1R,3R,5S)-9-methyl-9-azabicyclo[3.3.1]nonan-3-yl 5-fluoro-1-(2,2,2-trifluoroethyl)-1H-indole-3-carboxylate, 2,2,2-trifluoroacetate] the figure was 0.66 nM.
On to `CN1[C@@H]2CC[C@H]1C[C@@H](NC(=O)c1nn(CC(F)F)c3ccccc13)C2` [Example 90, 1-(2,2-difluoroethyl)-N-((1R,3R,5S)-8-methyl-8-azabicyclo-[3.2.1]octan-3-yl)-1H-indazole-3-carboxamide, 2,2,2-trifluoroacetate], for which the IC50 was 0.75 nM.
